Results: the supplement of paper PMC4862054
Where “and” joins values, the source holds several entries; their conditions need not be identical. Equal entries are not always repeated.

Columns and labels:
MDA-MB-453 [1] = settings: 72 h
Outline: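 EC50 is the value from a fitted percent-inhibition dose-response curve, censored at the highest concentration, and rows with zero drug sensitivity score were not kept. The underlying assay seeded breast cancer cell lines in 20 µl onto 384-well plates pre-loaded with compound in 5 µl medium for 72 h. Viability was then read by CellTiter-Blue fluorescence at 560/590 nm after 2 h at 37 °C, with each plate normalised to vehicle and a positive kill control.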

BT-549 [2] = test: normalised viability (% of control), CellTiter-Blue; higher = more viable cells (about 100 = DMSO control); settings: incubation time: 72 h
Method: (§1)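 DSRT, CellTiter-Blue viability, 72 h incubation. Signal is normalised to DMSO and benzethonium chloride controls. Value is the normalised response at dose 3.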

CAL-120 [3] = test: as above; settings: incubation time: 72 h
Method: as §1

CAL-148 [4] = test: as above; settings: incubation time: 72 h
Method: as §1

CAL-85-1 [5] = test: as above; settings: incubation time: 72 h
Method: as §1

Hs578T = test: as above; settings: incubation time: 72 h
Method: as §1

MDA-MB-436 [6] = test: as above; settings: incubation time: 72 h
Method: as §1

MDA-MB-453 [7] = test: as above; settings: incubation time: 72 h
Method: as §1

MFM-223 [8] = test: as above; settings: incubation time: 72 h
Method: as §1

SK-BR-3 [9] = test: as above; settings: incubation time: 72 h
Method: as §1

BT-474 = test: drug sensitivity score (DSS), CellTiter-Blue viability (DSS (AUC-based score)); higher = stronger viability inhibition; extreme values may be limits of the assay; settings: incubation time: 72 h
Method: (§2)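 DSRT with the CellTiter-Blue (resazurin reduction) viability readout, fluorescence 560/590 nm, 72 h incubation. Plates were normalised to DMSO and benzethonium chloride controls. DSS is computed from the area under the fitted dose-response curve (5 or 9 concentrations).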

BT-549 [10] = test: as above; settings: incubation time: 72 h
Method: as §2

CAL-120 [11] = test: as above; settings: incubation time: 72 h
Method: as §2

CAL-148 [12] = test: as above; settings: incubation time: 72 h
Method: as §2

CAL-51 = test: as above; settings: incubation time: 72 h
Method: as §2

CAL-85-1 [13] = test: as above; settings: incubation time: 72 h
Method: as §2

DU-4475 = test: as above; settings: incubation time: 72 h
Method: as §2

HCC1599 = test: as above; settings: incubation time: 72 h
Method: as §2

HCC1937 = test: as above; settings: incubation time: 72 h
Method: as §2

HDQ-P1 = test: as above; settings: incubation time: 72 h
Method: as §2

MDA-MB-231 = test: as above; settings: incubation time: 72 h
Method: as §2

MDA-MB-436 [14] = test: as above; settings: incubation time: 72 h
Method: as §2

MDA-MB-453 [15] = test: as above; settings: incubation time: 72 h
Method: as §2

MDA-MB-468 = test: as above; settings: incubation time: 72 h
Method: as §2

MFM-223 [16] = test: as above; settings: incubation time: 72 h
Method: as §2

SK-BR-3 [17] = test: as above; settings: incubation time: 72 h
Method: as §2

SMILES	EC50, CellTiter-Blue viability (MDA-MB-453 [1]) [nM]	normalised viability (BT-549 [2]; 100 nM) [%]	normalised viability (CAL-120 [3]; 100 nM) [%]	normalised viability (CAL-148 [4]; 10 nM) [%]	normalised viability (CAL-85-1 [5]; 10 nM) [%]	normalised viability (Hs578T; 100 nM) [%]	normalised viability (MDA-MB-436 [6]; 100 nM) [%]	normalised viability (MDA-MB-453 [7]; 10 nM) [%]	normalised viability (MFM-223 [8]; 100 nM) [%]	normalised viability (SK-BR-3 [9]; 100 nM) [%]	drug sensitivity score (BT-474)	drug sensitivity score (BT-549 [10])	drug sensitivity score (CAL-120 [11])	drug sensitivity score (CAL-148 [12])	drug sensitivity score (CAL-51)	drug sensitivity score (CAL-85-1 [13])	drug sensitivity score (DU-4475)	drug sensitivity score (HCC1599)	drug sensitivity score (HCC1937)	drug sensitivity score (HDQ-P1)	drug sensitivity score (MDA-MB-231)	drug sensitivity score (MDA-MB-436 [14])	drug sensitivity score (MDA-MB-453 [15])	drug sensitivity score (MDA-MB-468)	drug sensitivity score (MFM-223 [16])	drug sensitivity score (SK-BR-3 [17])	normalised viability (BT-549 [2]; 10 nM) [%]	normalised viability (CAL-120 [3]; 10 nM) [%]	normalised viability (CAL-148 [4]; 1 nM) [%]	normalised viability (CAL-85-1 [5]; 1 nM) [%]	normalised viability (Hs578T; 10 nM) [%]	normalised viability (MDA-MB-436 [6]; 10 nM) [%]	normalised viability (MDA-MB-453 [7]; 1 nM) [%]	normalised viability (MFM-223 [8]; 10 nM) [%]	normalised viability (SK-BR-3 [9]; 10 nM) [%]
Cn1cncc1[C@@](N)(c1ccc(Cl)cc1)c1ccc2c(c1)c(-c1cccc(Cl)c1)cc(=O)n2C [Tipifarnib]	1430	95.3	57	83.2	85.3	70.1	87.9	93	70.3	57.8	5.35	5.66	12.4	18.8	9.74	6.87	18.5	9.57	15.3	13.3	11.7	0	10.5	3.09	7.2	12.6									
CC[C@]1(O)C[C@H]2CN(CCc3c([nH]c4ccccc34)[C@@](C(=O)OC)(c3cc4c(cc3OC)N(C=O)[C@H]3[C@@](O)(C(=O)OC)[C@H](OC(C)=O)[C@]5(CC)C=CCN6CC[C@]43[C@@H]65)C2)C1 [Vincristine]	3.57	25.2	20	90.2	61.1	19.3	44.9	31.6	39.5	15.8		25.5 and 32	27.8 and 35.7	23 and 26.8	17.5 and 26.3	17.9 and 25	18.9 and 28.9	6.95 and 15.8	23.5 and 35	17.8 and 20.6	27 and 34.4	18 and 21	19.7 and 30.5	23.8 and 23.7	16.9 and 22.7	33.6 and 41.1	29.3	22.9	91.3	96.5	16.6	52.4	103	59.8	15.6
CC(C)(C#N)c1cc(Cn2cncn2)cc(C(C)(C)C#N)c1 [Anastrozole]		95.7	88.5	86.8	90.7	88.4	96	97.7	94.2	77.3	0	0	0	0	0	0	0	0	0	0	0	0	0	0	0	0									
Cn1c(=O)n(-c2ccc(C(C)(C)C#N)cc2)c2c3cc(-c4cnc5ccccc5c4)ccc3ncc21 [NVP-BEZ235]	8.31										12	18.5	20.4	19.5	20.7	16.2	13.5	8.13	14.5	16.2	17	5.52	21.6	13.3	19.7	15.9	68.2	57.4	108	110	56.7	105	96.5	51.9	88.4
COc1ccc(-c2ccc3c(N4CCOC[C@@H]4C)nc(N4CCOC[C@@H]4C)nc3n2)cc1CO [AZD8055]	17.1	44.3	32.5	80.9	79.8	33.7	70.7	80.3	26.6	23.6	20	22.4	25	28	28.8	23.6	20.9	14.5	21.7	23.9	21.4	15.6	29	16.8	27.6	28.6									
CNNCc1ccc(C(=O)NC(C)C)cc1 [Procarbazine]		111	106	98.1	97.8	104	97	105	92.8	92	0	0	0	0	0	0	0	0	0	0	0	0.866	0	0	0	0									
